pIC50: −log10 of the molar value.
Experiments:
[1] = biological target: T1, Oxysterols receptor LXR-alpha (Homo sapiens, UniProt Q13133); assay: Displacement of [3H2]F3-methylAA from human LXRalpha expressed in Escherichia coli BL21 cells by scintillation proximity assay
T1 sequence (Q13133 whole entry): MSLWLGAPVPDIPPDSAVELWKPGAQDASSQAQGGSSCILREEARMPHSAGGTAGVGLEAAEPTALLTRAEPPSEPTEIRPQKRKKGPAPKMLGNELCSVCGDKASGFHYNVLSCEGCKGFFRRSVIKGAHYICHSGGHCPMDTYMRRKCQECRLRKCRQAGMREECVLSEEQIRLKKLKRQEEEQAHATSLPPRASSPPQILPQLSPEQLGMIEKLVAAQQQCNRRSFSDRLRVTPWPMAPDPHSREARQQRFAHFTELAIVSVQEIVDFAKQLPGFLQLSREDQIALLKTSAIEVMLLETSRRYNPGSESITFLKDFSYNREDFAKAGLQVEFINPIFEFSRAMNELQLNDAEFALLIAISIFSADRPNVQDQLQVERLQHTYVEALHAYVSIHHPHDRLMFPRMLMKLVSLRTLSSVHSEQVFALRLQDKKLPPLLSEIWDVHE

[2] = biological target: T2, Oxysterols receptor LXR-beta (Homo sapiens, UniProt P55055); assay: Displacement of [3H2]F3-methylAA from human LXRbeta expressed in Escherichia coli BL21 cells by scintillation proximity assay
T2 sequence (P55055 whole entry): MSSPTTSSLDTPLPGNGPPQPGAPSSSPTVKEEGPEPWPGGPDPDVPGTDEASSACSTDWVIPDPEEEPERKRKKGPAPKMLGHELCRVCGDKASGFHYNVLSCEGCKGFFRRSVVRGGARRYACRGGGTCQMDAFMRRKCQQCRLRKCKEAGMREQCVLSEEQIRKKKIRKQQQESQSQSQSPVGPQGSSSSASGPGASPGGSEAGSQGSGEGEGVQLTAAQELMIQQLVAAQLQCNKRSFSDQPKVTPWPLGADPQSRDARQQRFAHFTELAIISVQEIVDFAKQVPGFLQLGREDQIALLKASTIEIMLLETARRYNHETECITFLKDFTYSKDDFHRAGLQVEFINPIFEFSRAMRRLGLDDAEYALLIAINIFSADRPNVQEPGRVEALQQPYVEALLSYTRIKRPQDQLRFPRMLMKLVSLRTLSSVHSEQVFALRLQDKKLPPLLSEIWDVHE

[3] = biological target: Liver X receptor (LXR alpha AND LXR beta) (Homo sapiens) (UniProt Q13133+P55055); assay: Selectivity ratio of IC50 for human LXRbeta to IC50 for human LXRalpha; format: protein assay

pIC50 [1]: 5.47 | pIC50 [2]: < 4.82 | Ratio IC50 [3]: 5
Compound: CC(C)=CCC/C(C)=C/C[C@H]1C[C@]2(CC=C(C)C)C(=O)[C@@](CC=C(C)C)(C(=O)C(C(=O)c3ccc(O)c(O)c3)=C2O)[C@]1(C)CCC=C(C)C [GUTTIFERONE I]

— ChEMBL document CHEMBL1158745, “Guttiferone I, a new prenylated benzophenone from Garcinia humilis as a liver X receptor ligand” (J Nat Prod, 2005)
